Results: US20070167452A1, “Therapeutic amide derivatives” (PFIZER, INC., priority 2004, published 2007)

Row | Compound | melting point [°C]
1 | O=C(NC[C@]1(O)CC[C@H](COc2ccccc2)CC1)c1ccc(O)cc1 [Example 8, 4-Hydroxy-N-{[trans-1-hydroxy-4-(phenoxymethyl)cyclohexyl]methyl}benzamide] | 189.5
2 | O=C(NC[C@]1(O)CC[C@H](COc2c(F)cccc2F)CC1)c1ccc(O)cc1 [Example 12, N-({trans-4-[(2,6-Difluorophenoxy)methyl]-1-hydroxycyclohexyl}methyl)-4-hydroxybenzamide] | 153.7
3 | O=C(NC[C@]1(O)CC[C@H](COc2ccccc2Cl)CC1)c1ccc(O)cc1 [Example 14, N-({trans-4-[(2-Chlorophenoxy)methyl]-1-hydroxycyclohexyl}methyl)-4-hydroxybenzamide] | 159
4 | COc1cccc(OC[C@H]2CC[C@@](O)(CNC(=O)c3ccc(O)cc3)CC2)c1 [Example 20, 4-Hydroxy-N-({trans-1-hydroxy-4-[(3-methoxyphenoxy)methyl]cyclohexyl}methyl)benzamide] | 190.3
5 | O=C(NC[C@]1(O)CC[C@H](COCc2ccc(Cl)cc2)CC1)c1ccc(O)cc1 [Example 25, N-[(trans-4-{[(4-Chlorobenzyl)oxy]methyl}-1-hydroxycyclohexyl)methyl]-4-hydroxybenzamide] | 164.1
6 | O=C(NC[C@]1(O)CC[C@H](CCOc2ccccc2)CC1)c1ccc(O)cc1 [Example 26, 4-Hydroxy-N-{[trans-1-hydroxy-4-(2-phenoxyethyl)cyclohexyl]methyl}benzamide] | 168.7
7 | O=C(NC[C@]1(O)CC[C@H](CCOc2ccccc2F)CC1)c1ccc(O)cc1 [Example 27, N-({trans-4-[2-(2-Fluorophenoxy)ethyl]-1-hydroxycyclohexyl}methyl)-4-hydroxybenzamide] | 178.9
8 | O=C(NC[C@]1(O)CC[C@H](CCOc2cccc(F)c2)CC1)c1ccc(O)cc1 [Example 28, N-({trans-4-[2-(3-Fluorophenoxy)ethyl]-1-hydroxycyclohexyl}methyl)-4-hydroxybenzamide] | 134.5
9 | O=C(NC[C@]1(O)CC[C@H](CCOc2ccc(F)cc2)CC1)c1ccc(O)cc1 [Example 29, N-({trans-4-[2-(4-Fluorophenoxy)ethyl]-1-hydroxycyclohexyl}methyl)-4-hydroxybenzamide] | 177.5
10 | O=C(NC[C@]1(O)CC[C@@H](Oc2ccc(Cl)cc2)CC1)c1ccc(O)cc1 [Example 32, N-{[cis-4-(4-Chlorophenoxy)-1-hydroxycyclohexyl]methyl}-4-hydroxybenzamide] | 196.6
11 | O=C(NC[C@]1(O)CC[C@H](OCc2ccc(F)cc2)CC1)c1ccc(O)cc1 [Example 47, N-({trans-4-[(4-Fluorobenzyl)oxy]-1-hydroxycyclohexyl}methyl)-4-hydroxybenzamide] | 122.1
12 | O=C(NC[C@]1(O)CC[C@H](OCc2cccc(F)c2)CC1)c1ccc(O)c(F)c1 [Example 49] | 138.2
13 | O=C(NC[C@]1(O)CC[C@H](CCOc2ccccc2F)CC1)c1ccc(O)c(F)c1 [Example 51, 3-Fluoro-N-({trans-4-[2-(2-fluorophenoxy)ethyl]-1-hydroxycyclohexyl}methyl)-4-hydroxybenzamide] | 184.7
14 | O=C(NC[C@H]1CC[C@@H](Oc2ccc(F)cc2)CC1)c1ccc(O)cc1 [Example 54, N-{[cis-4-(4-Fluorophenoxy)cyclohexyl]methyl}-4-hydroxybenzamide] | 170.5
15 | O=C(NC[C@H]1CC[C@@H](Oc2ccc(F)cc2)CC1)c1ccc(O)c(F)c1 [Example 55, 3-Fluoro-N-{[cis-4-(4-fluorophenoxy)cyclohexyl]methyl}-4-hydroxybenzamide] | 149.5
16 | O=C(NC[C@H]1CC[C@@H](OCCc2ccccc2)CC1)c1cn[nH]c1 [Example 72, N-{[cis-4-(2-Phenylethoxy)cyclohexyl]methyl}-1H-pyrazole-4-carboxamide] | 145
17 | O=C(NC[C@H]1CC[C@@H](CCOc2ccccc2)CC1)c1cn[nH]c1 [Example 77, N-{[cis-4-(2-Phenoxyethyl)cyclohexyl]methyl}-1H-pyrazole-4-carboxamide] | 155.7
18 | O=C(NC[C@H]1CC[C@@H](COc2ccccc2)CC1)c1ccc(O)nc1 [Example 82, 6-Hydroxy-N-{[cis-4-(phenoxymethyl)cyclohexyl]methyl}nicotinamide] | 189.8
19 | O=C(NC[C@H]1CC[C@@H](CCOc2ccccc2)CC1)c1ccnc(O)c1 [Example 83, 2-Hydroxy-N-{[cis-4-(2-phenoxyethyl)cyclohexyl]methyl}isonicotinamide] | 199.9
20 | O=C(NC[C@H]1CC[C@@H](CCOc2ccccc2)CC1)c1ccc(O)nc1 [Example 84, 6-Hydroxy-N-{[cis-4-(2-phenoxyethyl)cyclohexyl]methyl}nicotinamide] | 167.6
21 | O=C(NC[C@H]1CC[C@@H](CCOc2ccccc2)CC1)c1ccn[nH]1 [Example 85, N-{[cis-4-(2-Phenoxyethyl)cyclohexyl]methyl}-1H-pyrazole-5-carboxamide] | 130.5
22 | O=C(NC[C@H]1CC[C@@H](CCOc2ccccc2)CC1)c1c[nH]cn1 [Example 86, N-{[cis-4-(2-Phenoxyethyl)cyclohexyl]methyl}-1H-imidazole-4-carboxamide] | 169.6
23 | O=C(NC[C@H]1CC[C@@H](CCOc2ccccc2)CC1)c1ccc(=O)[nH]n1 [Example 93, 6-Oxo-N-{[cis-4-(2-phenoxyethyl)cyclohexyl]methyl}-1,6-dihydropyridazine-3-carboxamide] | 177.5
24 | O=C(NC[C@H]1CC[C@@H](CCOc2ccccc2)CC1)c1cc[nH]c1 [Example 96, N-{[cis-4-(2-Phenoxyethyl)cyclohexyl]methyl}-1H-pyrrole-3-carboxamide] | 121
25 | O=C(NC[C@H]1CC[C@@H](COc2ccccc2F)CC1)c1cn[nH]c1 [Example 100, N-({cis-4-[(2-Fluorophenoxy)methyl]cyclohexyl}methyl)-1H-pyrazole-4-carboxamide] | 139.8
26 | O=C(NC[C@H]1CC[C@@H](CCOc2ccccc2)CC1)c1ccc2[nH]c(=O)sc2c1 [Example 101, 2-Oxo-N-{[cis-4-(2-phenoxyethyl)cyclohexyl]methyl}-2,3-dihydro-1,3-benzothiazole-6-carboxamid] | 159.9
27 | Nc1n[nH]cc1C(=O)NC[C@H]1CC[C@@H](CCOc2ccccc2)CC1 [Example 102, 3-Amino-N-{[cis-4-(2-phenoxyethyl)cyclohexyl]methyl)-1H-pyrazole-4-carboxamide] | 129.3
28 | O=C(NC[C@H]1CC[C@@H](CCOc2ccccc2)CC1)c1ccc2[nH]ncc2c1 [Example 103, N-{[cis-4-(2-Phenoxyethyl)cyclohexyl]methyl}-1H-indazole-5-carboxamide] | 144.5
29 | O=C(NC[C@H]1CC[C@@H](CCOc2ccccc2)CC1)c1c[nH]nn1 [Example 104, N-{[cis-4-(2-Phenoxyethyl)cyclohexyl]methyl}-1H-1,2,3-triazole-4-carboxamide] | 141.2
30 | O=C(NC[C@H]1CC[C@@H](COc2ccc(F)cc2)CC1)c1cn[nH]c1 [Example 109, N-({cis-4-[(4-Fluorophenoxy)methyl]cyclohexyl}methyl)-1H-pyrazole-4-carboxamide] | 147.1
